Data taken from patent US12123030B2, “Polynucleotides encoding lipoprotein lipase for the treatment of hyperlipidemia” (ModernaTX, Inc., priority 2016, dated 2024).

How the values were obtained:
IP-10 = experiment: Cytokine expression after nanoparticle compositions: IP-10; type: in vivo; settings: 6 h; nanoparticle composition including the compound
adult rat = experiment: Dose range finding (DRF) study in adult rat; type: in vivo; settings: one month, one dose per week (5 total doses)
Protocol: (§1) Dose range finding (DRF) studies using surrogate Compound 18 are in progress to further examine the Compound 18 programs. One month of a DRF study, consisting of one dose per week (5 total doses) in adult rat was performed in order to measure hematology, clinical chemistry, and full pathology. […] Additionally, one month of GLP dose studies, consisting of five doses (one per week) via IV infusion will be administered to rats in order to examine safety pharmacology measures, including central nervous system (rats) and cardiovascular system (monkeys), such as heart rate, blood pressure, and EKG readings. Furthermore, gene toxicity studies were be undertaken, in vitro, using a 4 strain Ames test, and in vitro micronucleous hPBMCs. […] An in vivo mouse micronucleus assay will also be performed to further investigate the Compound 18/5-methoxy uridine (mo5U) modification chemistry.

IL-6 = experiment: Cytokine expression after nanoparticle compositions: IL-6; type: in vivo; settings: 6 h; nanoparticle composition including the compound
hEPO = hEPO expression from nanoparticle compositions; type: in vivo; settings: for hEPO expression: nanoparticle composition including the compound; for Average hEPO concentration: Table 9
4 strain Ames test = experiment: 4 strain Ames test; type: cell-based; settings: in vitro
Protocol: as §1

ffluc = experiment: Average total flux (ffluc) from nanoparticle compositions; type: in vivo; settings: 6 h
triglycerides = settings: existing hyperlipidemia treatment, patients; cited from earlier work
[1] = system: triglycerides in HTG patients; settings: existing HTG treatments; cited from earlier work

| Structure (SMILES) | Cytokine expression IP-10 (IP-10) [pg/mL] | adverse events (adult rat) | clinical chemistry (adult rat) | Cytokine expression IL-6 (IL-6) [pg/mL] | hEPO expression (hEPO; 3 h) [pg/mL] | Average hEPO concentration (hEPO; 6 h) [pg/mL] | hEPO expression (hEPO; 24 h) [pg/mL] | mutagenic potential (Ames data) (4 strain Ames test) | hEPO expression (hEPO; 6 h) [pg/mL] | Average total flux (ffluc) | reduction in triglycerides (triglycerides) | reduction in triglycerides [1] |
| --- | --- | --- | --- | --- | --- | --- | --- | --- | --- | --- | --- | --- |
| CCCCCCCCCOC(=O)CCCCCCCN(CCO)CCCCCCCC(=O)OC(CCCCCCCC)CCCCCCCC [Compound 18, Heptadecan-9-yl 8-((2-hydroxyethyl)(8-(nonyloxy)-8-oxooctyl)amino) octanoate] | 299.93 | No adverse events were reported | normal | 10.16 | 3e+06 | 3.38e+06 | 1.8e+06 | does not have mutagenic potential |  |  |  |  |
| CCCCC/C=C\C/C=C\CCCCCCCCC(CCCCCCCC/C=C\C/C=C\CCCCC)OC(=O)CCCN(C)C [MC3] | 117.94 |  |  | 19.85 | 1.57e+06 | 1.83e+06 | 810000 |  | 1.83e+06 | 6.59 × 10^9 |  |  |
| O=C(O)c1cccnc1 [Nicotinic acid] |  |  |  |  |  |  |  |  |  |  | 15-25% | 15-25% |
| CCCCC/C=C\C/C=C\CCCCCCCCN(CCO)CCCCCCCC(=O)OC(CCCCCCCC)CCCCCCCC [Compound 6] | 116.66 |  |  | 10.15 |  |  |  |  |  | 7.60 × 10^9 |  |  |
